Experimental data as given in patent publication US9751919B2, “Antimicrobial compositions comprising a hyaluronic acid binding peptide and a β-lactam antibiotic” (priority 2012, dated 2017).
Several values for one entry are separate records, joined by “and”; a condition that tells them apart may be missing. Equal values may be shown once. Read-outs that look alike come from different tables or passages of the source. Marks after values point to notes of the source that are not given here.

What was measured:
[1] = system: E. coli; assay: MIC (CLSI broth dilution), agent alone; format: cell-based, Escherichia coli; details: for MIC: agent alone
Method: VISA (strains 92, 95 and 96), VRSA (strains 105 and 106) and E. coli (strain 69717) isolates were also tested. One MSSA was used as a control. All MICs were assessed using CLSI guidelines. Also assessed was the activity of cefazolin, ceftriazone, meropenem, and a piperacillin/tazobactam combination antibiotic. Minimum inhibitory concentration (MIC) is the lowest concentration of an antimicrobial that will inhibit the visible growth of a microorganism after incubation.
Antimicrobial Susceptibility Testing: A custom designed panel of antimicrobials was created. The panel included: PEP35, penicillin, piperacillin/tazobactam, cefazolin, ceftriaxone, meropenem, clarithromycin, clindamycin, gentamicin, amikacin, vancomycin, ciprofloxacin, levofloxacin, moxifloxacin, linezolid, trimethoprim/sulfamethoxazole and doxycycline. These agents were obtained as laboratory grade powders from their respective manufacturers. Stock solutions were prepared and dilutions made as described by the Clinical Laboratory Standards Institute (2005 CLSI). Following two subcultures from frozen stock the MICs of the antimicrobial agents for the isolates were determined by the CLSI 2005 approved broth macrodilution method. Briefly, test tubes containing doubling antibiotic dilutions (2 ml per tube) of cation adjusted Mueller-Hinton broth (eg. for Enterobacteriaceae) with or without lysed horse blood (2-5% V/V) [eg. for S. pneumoniae] were inoculated to achieve a final concentration of approximately 5×10^5 CFU/ml and incubated in ambient air for 24 hours prior to reading. Colony counts were performed periodically to confirm inocula. Quality control was performed every two weeks using a variety of ATCC QC organisms including; S. aureus 29213, E. faecalis 29212, E. coli 25922 and P. aeruginosa 27853. For all antimicrobials as well as PEP35, CLSI criteria were used.
One MS SA and ATCC reference strains were used as controls. All MICs were assessed using CLSI guidelines.

[2] = system: VRE; assay: Checkerboard assay (FIC index); format: cell-based, Enterococcus faecium; details: antibiotic combined with PEP35
Method: (§1) The checkerboard assays were carried out as described by Eliopoulos and Moellering (Chapter 9) in Antibiotic in Laboratory Medicine, Lorian Ed. 1996 as well as Bonapace et al. Diagnostic Microbiology and Infectious Diseases 2002; 44:363-366 and Bonapace et al. Diagnostic Microbiology and Infectious Diseases 2000; 38:43-50. In brief, checkerboard assays were performed in 96 well microtitre trays using an 8-by-8 well configuration. […] 96-well custom designed microtitre plates contained 100 ul/well of cation adjusted Mueller-Hinton broth (eg. for Enterobacteriaceae) with or without lysed horse blood (2-5% V/V) [eg. for S. pneumoniae] and were inoculated to achieve a final concentration of approximately 5×10^5 CFU/ml and incubated in ambient air for 24 hours prior to reading. Colony counts were performed periodically to confirm inocula. Quality control was performed every two weeks using a variety of ATCC QC organisms including; S. pneumoniae 49619, S. aureus 29213, E. faecalis 29212, E. coli 25922 and P. aeruginosa 27853. For all antimicrobials as well as PEP35, CLSI criteria was used.
(§2) The fractional inhibitory concentration index (FIC index) was used to interpret synergy, antagonism or additivity/indifference. FIC index=FIC of drug A+FIC of drug B where:
(§3) The FIC of drug A and drug B is calculated as follows, FIC drug A=MIC of drug A in combination/MIC of drug A alone and FIC of drug B=MIC of drug B in combination/MIC of drug B alone. Synergy is defined as FIC index ≦0.5, additivity/indifference FIC >0.5-4 and antagonism FIC index >4.
(§4) Antimicrobials used included PEP35, cefazolin, ceftriaxone, vancomycin, linezolid, tigecycline and daptomycin versus Gram-positive cocci and PEP35, gentamicin, levofloxacin, piperacillin/tazobactam, meropenem and colistin (Polymyxin E) versus Gram-negative bacilli. These agents were obtained as laboratory grade powders from their respective manufacturers. Stock solutions were prepared and dilutions made as described by the Clinical Laboratory Standards Institute (2005 CLSI).
(§5) Organisms included Gram-positive cocci (2 strains of each): Methicillin-susceptible Staphylococcus aureus (MSSA), community-associated (CA) and healthcare-associated (HA) methicillin-resistant Staphylococcus aureus (MRSA), vancomycin-intermediate Staphylococcus aureus (VISA), vancomycin-resistant Staphylococcus aureus (VRSA), methicillin-resistant Staphylococcus epidermidis (MRSE), Streptococcus pyogenes, Streptococcus agalactiae, Streptococcus pneumoniae, Enterococcus faecalis, Enterococcus faecium and vancomycin-resistant enterococcus (VRE). Gram-negative bacilli tested (2 strains of each) included: E. coli, Pseudomonas aeruginosa, Klebsiella pneumoniae, K. oxytoca, Enterobacter cloacae, P. mirabilis and Stenotrophomonas maltophilia. MIC testing, following two subcultures from frozen stock were determined by the CLSI 2005 approved broth microdilution method.

[3] = system: E. Faecium; assay: Checkerboard assay (FIC index); format: cell-based, Enterococcus faecium; details: antibiotic combined with PEP35
Method: as §1, §2, §3, §4, §5

[4] = system: E. cloacae; assay: Checkerboard assay (FIC index); format: cell-based, Enterobacter cloacae; details: antibiotic combined with PEP35
Method: as §1, §2, §3, §4, §5

[5] = system: P. aeruginosa; assay: Checkerboard assay (FIC index); format: cell-based, Pseudomonas aeruginosa; details: antibiotic combined with PEP35
Method: as §1, §2, §3, §4, §5

[6] = system: K. pneumoniae; assay: Checkerboard assay (FIC index); format: cell-based, Klebsiella pneumoniae; details: antibiotic combined with PEP35
Method: as §1, §2, §3, §4, §5

[7] = system: S. maltophilia; assay: Checkerboard assay (FIC index); format: cell-based, Stenotrophomonas maltophilia; details: antibiotic combined with PEP35
Method: as §1, §2, §3, §4, §5

[8] = system: K. oxytoca; assay: Checkerboard assay (FIC index); format: cell-based, Klebsiella oxytoca; details: antibiotic combined with PEP35
Method: as §1, §2, §3, §4, §5

Row | Compound | MIC ([1]; E. coli 69716, in µg/mL) | MIC ([1]; E. coli 70752, in µg/mL) | Avg ΣFIC (range) ([2]; VRE 70769) | Avg ΣFIC (range) ([2]; VRE 77872) | Avg ΣFIC (range) ([3]; E. Faecium 78024) | Avg ΣFIC (range) ([3]; E. Faecium 78352) | further results
1 | Cc1nnc(SCC2=C(C(=O)O)N3C(=O)[C@@H](NC(=O)Cn4cnnn4)[C@H]3SC2)s1 [Cefazolin] | 2 | 128 | >1* | >1* | 1.16 (1.015-1.5) | 1.10 (1-1.25) | Cefazolin (MIC) ([1]; E. coli, antibiotic alone, two values in cell): 2/2; MIC ([1]; Escherichia coli, E. coli control, read-out: MIC): 2 µg/mL
2 | CO/N=C(\C(=O)N[C@@H]1C(=O)N2C(C(=O)O)=C(CSc3nc(=O)c(=O)[nH]n3C)CS[C@H]12)c1csc(N)n1 [Ceftriaxone] | – | – | >1* | >1* | >1* | 0.99 (0.62-1.25) | –
3 | CCCCCCCCCC(=O)N[C@@H](Cc1c[nH]c2ccccc12)C(=O)N[C@H](CC(N)=O)C(=O)N[C@@H](CC(=O)O)C(=O)N[C@@H]1C(=O)NCC(=O)N[C@@H](CCCN)C(=O)N[C@@H](CC(=O)O)C(=O)N[C@H](C)C(=O)N[C@@H](CC(=O)O)C(=O)NCC(=O)N[C@H](CO)C(=O)N[C@@H]([C@H](C)CC(=O)O)C(=O)N[C@@H](CC(=O)c2ccccc2N)C(=O)O[C@@H]1C [Daptomycin, daptomycin] | – | – | 0.82 (0.28-1.25) | 1.34 (1.03-1.5) | 1.19 (1.03-1.5) | 1.10 (0.75-1.5) | –
4 | CC(=O)NC[C@H]1CN(c2ccc(N3CCOCC3)c(F)c2)C(=O)O1 [Linezolid, linezolid] | – | – | 1.09 (1-1.25) | 1.19 (1.03-1.5) | 1.1 (1-1.25) | 0.80 (0.5-1.06) | –
5 | C[C@@H](O)[C@H]1C(=O)N2C(C(=O)O)=C(S[C@@H]3CN[C@H](C(=O)N(C)C)C3)[C@H](C)[C@H]12 [Meropenem] | 0.03 | 0.03 | – | – | – | – | Avg ΣFIC (range) ([4]; E. cloacae 80194): 1.32 (1.03-2.12); Avg ΣFIC (range) ([4]; E. cloacae 83128): 1.05 (0.75-1.25); Avg ΣFIC (range) ([5]; P. aeruginosa 70849): 1.21 (1.03-1.5); Avg ΣFIC (range) ([5]; P. aeruginosa 71841): 1.10 (1.0-1.25); Avg ΣFIC (range) ([6]; K. pneumoniae 70508): 1.19 (1.03-1.5); Avg ΣFIC (range) ([6]; K. pneumoniae 77081): 1.21 (1.03-1.5); Avg ΣFIC (range) ([7]; S. maltophilia 73062): 0.77 (0.5-1.03); Avg ΣFIC (range) ([7]; S. maltophilia 77424): 1.05 (0.75-1.25); Avg ΣFIC (range) ([8]; K. oxytoca 75316): 1.1 (1.0-1.25); Avg ΣFIC (range) ([8]; K. oxytoca 76874): 0.80 (0.53-1.12)
6 | CN(C)c1cc(NC(=O)CNC(C)(C)C)c(O)c2c1C[C@H]1C[C@H]3[C@H](N(C)C)C(O)=C(C(N)=O)C(=O)[C@@]3(O)C(O)=C1C2=O [Tigecycline, tigecycline] | – | – | 1.2 (1.03-1.05) | 1.39 (1.03-2.06) | 1.19 (1.03-1.5) | 0.99 (0.75-1.12) | –
7 | CN[C@H](CC(C)C)C(=O)N[C@H]1C(=O)N[C@@H](CC(N)=O)C(=O)N[C@H]2C(=O)N[C@H]3C(=O)N[C@H](C(=O)N[C@H](C(=O)O)c4cc(O)cc(O)c4-c4cc3ccc4O)[C@H](O)c3ccc(c(Cl)c3)Oc3cc2cc(c3O[C@@H]2O[C@H](CO)[C@@H](O)[C@H](O)[C@H]2O[C@H]2C[C@](C)(N)[C@H](O)[C@H](C)O2)Oc2ccc(cc2Cl)[C@H]1O [Vancomycin] | – | – | 0.92 (0.506-1.25) | 1.19 (1.03-1.5) | 1.19 (1.03-1.5) | 1.59 (1.06-2.5) | –
8 | KKKKKLQLQLNLIKKKVQVSVVVVRRH (Reordered human peptide sequence) [Scrambled PEP35] | 8 | 8 | – | – | – | – | activity (in words) ([1]; vs E. coli): active
9 | LKQKIKHVVKLKVVVKLRSQLVKRKQN (listed as Mus sp.) [PEP35] | 128 | 128 | – | – | – | – | MIC ([1]; E. coli control): 64 µg/mL; PEP35 (MIC) ([1]; E. coli, peptide alone): 64 µg/mL
10 | piperacillin/tazobactam | 2 | 8 | – | – | – | – | Avg ΣFIC (range) ([4]; E. cloacae 80194): 0.79 (0.5-1.06); Avg ΣFIC (range) ([4]; E. cloacae 83128): 0.71 (0.37-1.06); Avg ΣFIC (range) ([5]; P. aeruginosa 70849): 0.92 (0.62-1.12); Avg ΣFIC (range) ([5]; P. aeruginosa 71841): 0.88 (0.56-1.12); MIC ([1]; E. coli 69716, listed as Piperacillin-Tazobactam, in µg/mL): 4 and 2; MIC ([1]; E. coli 70752): 4/4; Avg ΣFIC (range) ([6]; K. pneumoniae 70508): 0.93 (0.62-1.12); Avg ΣFIC (range) ([6]; K. pneumoniae 77081): 1.05 (0.75-1.25); Avg ΣFIC (range) ([7]; S. maltophilia 73062): 0.98 (0.62-1.25); Avg ΣFIC (range) ([7]; S. maltophilia 77424): 1.04 (0.75-1.25); Avg ΣFIC (range) ([8]; K. oxytoca 75316): 0.93 (0.62-1.12); Avg ΣFIC (range) ([8]; K. oxytoca 76874): 0.83 (0.53-1.12)
